Source: ChEMBL document CHEMBL1144654, “Discovery of 1-(4-phenoxypiperidin-1-yl)-2-arylaminoethanone stearoyl-CoA desaturase 1 inhibitors” (Bioorg Med Chem Lett, 2007)
pIC50: −log10 of the molar value.

Biological target: T1, Stearoyl-CoA desaturase (Homo sapiens, UniProt O00767)
T1 sequence (O00767 whole entry): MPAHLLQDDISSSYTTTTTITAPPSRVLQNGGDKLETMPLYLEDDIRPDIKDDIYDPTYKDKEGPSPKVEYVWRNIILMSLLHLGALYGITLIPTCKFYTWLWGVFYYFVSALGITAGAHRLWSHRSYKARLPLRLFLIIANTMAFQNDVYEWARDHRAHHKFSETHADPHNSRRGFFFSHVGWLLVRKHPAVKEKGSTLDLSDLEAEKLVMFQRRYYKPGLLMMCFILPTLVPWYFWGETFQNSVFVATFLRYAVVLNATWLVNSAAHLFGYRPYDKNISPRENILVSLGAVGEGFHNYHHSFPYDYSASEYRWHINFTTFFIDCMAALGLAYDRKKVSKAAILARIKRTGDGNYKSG
Test: Inhibition of human SCD1

Work on `O=C(NCc1ccncc1)c1ncccc1NCC(=O)N1CCC(Oc2ccccc2C(F)(F)F)CC1` yielded a pIC50 of 6.46.
`O=C(Nc1ccccc1)c1nccnc1NCC(=O)N1CCC(Oc2ccccc2Cl)CC1` showed a pIC50 of 6.26.
`CNC(=O)c1nccnc1NCC(=O)N1CCC(Oc2ccccc2)CC1` was tested, and the pIC50 was 5.20.
For `CNC(=O)c1nccnc1NCC(=O)N1CCC(Oc2cc(F)ccc2Cl)CC1`, the pIC50 was 7.29.
Work on `CC(C)CNC(=O)c1nccnc1NCC(=O)N1CCC(Oc2ccccc2Cl)CC1` yielded a pIC50 of 6.59.
For `O=C(NCc1ccccn1)c1nccnc1NCC(=O)N1CCC(Oc2ccccc2Cl)CC1`, the pIC50 was 6.96.
For `CNC(=O)c1nccnc1NCC(=O)N1CCC(Oc2cc(Cl)ccc2Cl)CC1`, the pIC50 was 7.42.
For `O=C(NCCc1ccccc1)c1ncccc1NCC(=O)N1CCC(Oc2ccccc2C(F)(F)F)CC1`, the pIC50 was 6.11.
For `O=C(NCCO)c1nccnc1NCC(=O)N1CCC(Oc2ccccc2Cl)CC1`, the pIC50 was 7.00.
`CNC(=O)c1cccnc1NCC(=O)N1CCC(Oc2ccccc2C(F)(F)F)CC1` was tested, and the pIC50 was less than 6.00.
For `CCCNC(=O)c1ncccc1NCC(=O)N1CCC(Oc2ccccc2C(F)(F)F)CC1`, the pIC50 was 6.41.
Work on `CNC(=O)c1nccnc1NCC(=O)N1CCC(C(=O)c2ccccc2)CC1` yielded a pIC50 of less than 6.00.
`CNC(=O)c1nccnc1NCC(=O)N1CCC(Oc2cc(F)cc(F)c2Cl)CC1` was tested, and the pIC50 was 7.46.
For `CCNC(=O)c1nccnc1NCC(=O)N1CCC(Oc2ccccc2Cl)CC1`, the pIC50 was 7.41.
Compound `O=C(NCc1cccnc1)c1ncccc1NCC(=O)N1CCC(Oc2ccccc2C(F)(F)F)CC1` has a pIC50 of 6.37.
`O=C(NCc1ccccc1)c1nccnc1NCC(=O)N1CCC(Oc2ccccc2Cl)CC1` was tested, and the pIC50 was 6.85.
`N#Cc1nccnc1NCC(=O)N1CCC(Oc2ccccc2Cl)CC1` showed a pIC50 of 6.47.
Work on `CNC(=O)c1nccnc1NCC(=O)N1CCC(Oc2ccccc2Br)CC1` yielded a pIC50 of 7.24.
`O=C(NCc1ccccc1)c1ncccc1NCC(=O)N1CCC(Oc2ccccc2Cl)CC1` gave a pIC50 of 6.25.
Work on `NC(=O)c1nccnc1NCC(=O)N1CCC(Oc2ccccc2Cl)CC1` yielded a pIC50 of 7.03.
`COC(=O)c1nccnc1NCC(=O)N1CCC(Oc2ccccc2Cl)CC1` showed a pIC50 of 7.41.
`CNC(=O)c1ncccc1NCC(=O)N1CCC(Oc2ccccc2C(F)(F)F)CC1` showed a pIC50 of 7.01.
`O=C(NCc1ccccc1)c1cccc(NCC(=O)N2CCC(Oc3ccccc3C(F)(F)F)CC2)n1` was tested, and the pIC50 was 5.14.
`O=C(NC1CCCC1)c1ncccc1NCC(=O)N1CCC(Oc2ccccc2C(F)(F)F)CC1` showed a pIC50 of less than 5.00.
Work on `O=C(NCc1cccnc1)c1nccnc1NCC(=O)N1CCC(Oc2ccccc2Cl)CC1` yielded a pIC50 of 7.00.
Work on `O=Cc1nccnc1NCC(=O)N1CCC(Oc2ccccc2Cl)CC1` yielded a pIC50 of 6.68.
For `O=C(NCc1ccccc1)c1ccccc1NCC(=O)N1CCC(Oc2ccccc2Cl)CC1`, the pIC50 was 6.24.
`CN(C)C(=O)c1ncccc1NCC(=O)N1CCC(Oc2ccccc2C(F)(F)F)CC1` was tested, and the pIC50 was less than 5.00.
With `O=C(NCc1ccncc1)c1nccnc1NCC(=O)N1CCC(Oc2ccccc2Cl)CC1` the pIC50 was 6.96.
`CCNC(=O)c1ncccc1NCC(=O)N1CCC(Oc2ccccc2C(F)(F)F)CC1` was tested, and the pIC50 was 6.96.
With `O=C(NCCO)c1ncccc1NCC(=O)N1CCC(Oc2ccccc2C(F)(F)F)CC1` the pIC50 was 6.92.
`CNC(=O)c1nccnc1NCC(=O)N1CCC(Oc2ccccc2Cl)CC1` gave a pIC50 of 7.29.
With `O=C(CNc1nccnc1Cl)N1CCC(Oc2ccccc2Cl)CC1` the pIC50 was 7.52.
`NC(=O)c1ncccc1NCC(=O)N1CCC(Oc2ccccc2C(F)(F)F)CC1` showed a pIC50 of 7.05.
